Molecules are shown by their SMILES.

Our source for the IC50, inhibition and Activity values is ChEMBL document CHEMBL1149214, “1,2-Diaryl-1-ethanone and pyrazolo [4,3-c] quinoline-4-one as novel selective cyclooxygenase-2 inhibitors” (Bioorg Med Chem Lett, 2004).

For assay [1], the target named is T1, Prostaglandin G/H synthase 1 (Ovis aries, UniProt P05979).
T1 sequence (P05979 whole entry): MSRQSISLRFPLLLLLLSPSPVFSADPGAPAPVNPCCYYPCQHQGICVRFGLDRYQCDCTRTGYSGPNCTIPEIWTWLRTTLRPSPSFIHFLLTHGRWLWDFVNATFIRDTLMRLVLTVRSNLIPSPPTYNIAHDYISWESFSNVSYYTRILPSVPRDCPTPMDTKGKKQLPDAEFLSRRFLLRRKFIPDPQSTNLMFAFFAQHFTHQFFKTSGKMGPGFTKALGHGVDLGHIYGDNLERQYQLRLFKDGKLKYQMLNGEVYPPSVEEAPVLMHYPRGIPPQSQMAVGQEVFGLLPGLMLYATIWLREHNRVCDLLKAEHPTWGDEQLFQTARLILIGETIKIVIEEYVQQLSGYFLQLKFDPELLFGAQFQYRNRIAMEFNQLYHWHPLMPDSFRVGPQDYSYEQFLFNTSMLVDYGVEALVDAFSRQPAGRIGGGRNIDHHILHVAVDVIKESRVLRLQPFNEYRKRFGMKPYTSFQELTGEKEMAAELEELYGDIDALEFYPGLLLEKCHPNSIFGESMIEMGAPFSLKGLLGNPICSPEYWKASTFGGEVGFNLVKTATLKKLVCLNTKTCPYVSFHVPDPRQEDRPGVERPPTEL
Nature of the assay: Inhibition of prostaglandin G/H synthase 1 enzyme from ram seminal vesicles by spectrophotometric method.

Assay [2] concerns the target T2, Prostaglandin G/H synthase 1 (Ovis aries) (UniProt P05979).
T2 sequence (whole entry): T1 sequence (P05979 whole entry)
Nature of the assay: Inhibition of prostaglandin G/H synthase 1 enzyme from ram seminal vesicles by spectrophotometric method at 10 uM.

Assay [3] has as its system Rattus norvegicus. Nature of the assay: Activity in Carrageenan induced rat paw model at 30 mg/Kg; Range = 25-45%. It is filed as functional.
Assay [4] addresses T3, Prostaglandin G/H synthase 2 (Homo sapiens, UniProt P35354).
T3 sequence (P35354 whole entry): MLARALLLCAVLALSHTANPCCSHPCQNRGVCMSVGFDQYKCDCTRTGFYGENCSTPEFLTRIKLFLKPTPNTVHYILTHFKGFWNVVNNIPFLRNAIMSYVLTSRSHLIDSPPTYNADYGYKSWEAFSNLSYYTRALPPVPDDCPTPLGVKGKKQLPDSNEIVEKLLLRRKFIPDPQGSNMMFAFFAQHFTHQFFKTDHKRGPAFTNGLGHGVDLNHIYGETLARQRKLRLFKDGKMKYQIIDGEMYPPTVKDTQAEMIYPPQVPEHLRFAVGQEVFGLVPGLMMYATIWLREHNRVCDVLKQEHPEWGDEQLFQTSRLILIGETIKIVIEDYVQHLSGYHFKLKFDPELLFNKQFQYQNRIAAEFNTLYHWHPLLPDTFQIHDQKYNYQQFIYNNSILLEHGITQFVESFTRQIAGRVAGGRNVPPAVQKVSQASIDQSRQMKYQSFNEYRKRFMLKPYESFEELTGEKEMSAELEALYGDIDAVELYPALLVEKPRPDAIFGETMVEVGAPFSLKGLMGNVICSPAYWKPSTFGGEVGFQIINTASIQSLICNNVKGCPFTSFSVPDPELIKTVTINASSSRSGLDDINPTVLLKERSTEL
Nature of the assay: Inhibition of human Prostaglandin G/H synthase 2 in sf-9 cells by spectrophotometric method.

Assay [5] addresses T3, Prostaglandin G/H synthase 2. Nature of the assay: Inhibition of human Prostaglandin G/H synthase 2 in sf-9 cells by spectrophotometric method. It is filed as cell-based, Sf9.

For `Cc1nn(-c2ccccc2)c2c1c(O)nc1ccc([N+](=O)[O-])cc12`, the IC50 in assay [1] is 5 µM; in assay [4], 0.55 µM. Further, the inhibition in assay [2] is 46%. Also, the Activity in assay [3] is reported as below 45%.

Molecule `CS(=O)(=O)c1ccc(C(=O)C(Nc2nccs2)c2ccccc2)cc1` (centres undefined) had an inhibition in assay [2] of 10%.

Take `C[S+]([O-])c1ccc(C(Nc2nccs2)C(=O)c2ccc(F)cc2)cc1` (centres undefined): the IC50 in assay [1] worked out at 500 µM; in assay [5], 2.1 µM. The molecule further yielded an inhibition in assay [2] of -0%. The Activity in assay [3] was below 45%.

As for `Cc1nn(-c2ccccc2)c2c1c(O)nc1ccccc12`, in assay [2], the inhibition turned out to be 82%.

`Cc1nn(-c2ccc(S(N)(=O)=O)cc2)c2c1c(O)nc1ccc([N+](=O)[O-])cc12` showed an inhibition in assay [2] of 40%. Moreover, the Activity in assay [3] was below 45%.

As to `Cc1nn(-c2ccc(S(=O)(=O)NCc3ccccc3)cc2)c2c1c(O)nc1ccc([N+](=O)[O-])cc12`, in assay [2], the inhibition came out at 78%.

`Cc1nn(-c2ccc(S(N)(=O)=O)c(CO)c2)c2c1c(O)nc1ccccc12` came in with an inhibition in assay [2] of -0%.

`Cc1nn(-c2ccc(S(N)(=O)=O)cc2)c2c1c(O)nc1ccccc12` showed an inhibition in assay [2] of 20%.

In assay [2], `NS(=O)(=O)c1ccc(C(Nc2nc3ccccc3s2)C(=O)c2ccc(F)cc2)cc1` (centres undefined) yielded an inhibition of 23%.

`CSc1ccc(C(=O)C(Nc2ncccc2Cl)c2ccccc2)cc1` (centres undefined) showed an inhibition in assay [2] of 53%.

The molecule `CS(=O)(=O)c1ccc(C(Nc2nccs2)C(=O)c2ccc(F)cc2)cc1` (centres undefined) displayed an inhibition in assay [2] of -0%.

For the molecule `C[S+]([O-])c1ccc(C(=O)C(Nc2nccs2)c2ccccc2)cc1` (centres undefined), the inhibition in assay [2] was 29%.

For `Cc1nn(-c2ccc(S(N)(=O)=O)cc2)c2c1c(=O)[nH]c1ccc([N+](=O)[O-])cc12`, the figures for the IC50 in assay [1] and in assay [4] were 4.7 µM and 0.24 µM, respectively.

As for `C[S+]([O-])c1ccc(C(Nc2cccnc2)C(=O)c2ccc(F)cc2)cc1` (centres undefined), the IC50 in assay [1] came to 50 µM; in assay [5], 0.5 µM. In addition, the inhibition in assay [2] was -0%. The molecule also came in with an Activity in assay [3] below 45%.

`NS(=O)(=O)c1ccc(C(Nc2ncccn2)C(=O)c2ccc(F)cc2)cc1` (centres undefined): the inhibition in assay [2] was -0%.

`NS(=O)(=O)c1ccc(C(Nc2nccs2)C(=O)c2ccc(F)cc2)cc1` (centres undefined) had an inhibition in assay [2] of -0%.

In assay [2], `Cc1nn(-c2ccc(S(N)(=O)=O)c(CO)c2)c2c1c(O)nc1ccc([N+](=O)[O-])cc12` displayed an inhibition of -0%.

`NS(=O)(=O)c1ccc(C(Nc2ccccn2)C(=O)c2ccc(F)cc2)cc1` (centres undefined) came in with an inhibition in assay [2] of 30%.

Usually IC50 stands for the concentration that inhibits the measured activity by half. A lower IC50 goes with greater potency. As usually defined, the inhibition is the change of the read-out against control, counted positive when it falls. A lower inhibition goes with a weak effect.
